Assay results taken from EP2285386B1, “Use of ribose in the treatment of restless legs syndrome” (RiboCor, Inc., priority 2008, dated 2009).
Read-outs that look alike come from different tables or passages of the source.

Columns and labels:
[1] = human, in vivo, iv, cited from earlier work
[2] = system: two familial males with RLS; assay: Restless Legs Syndrome case study: oral D-ribose at three dosing regimens, symptom diary; assay type: in vivo, human; conditions: three weeks
Text: We present a report on two familial males with RLS in which the supplementation of D-ribose produced a benefit in lessening the occurrence and severity of their daily symptoms. Both affected male individuals were from a positive family prevalence, three generations carrying the diagnosis of RLS. These males involved the latter two generations, parent and child, respectively. Both men had no underlying medical conditions. Their symptoms of RLS date back for decades and presently have progressed to the moderate to severe discomfort stage, mainly experienced during sedentary periods throughout the day with exacerbation of symptoms during nocturnal sleep.
Both individuals were introduced to D-ribose. To evaluate any potential benefits of D-ribose in RLS, each individual orally consumed D-ribose (five grams per dose) daily at different trial dosing regimens. Each trial dosing regimen lasted for three weeks with a two week interval washout between dosing regimens. The initial regimen involved a single dose of oral D- ribose consumed only at breakfast. The second dosing regimen involved consumption of oral D-ribose at breakfast and lunch. In the last dosing regiment, oral D-ribose was taken with all meals, breakfast, lunch and dinner. A diary pertaining to the documentation and severity of RLS symptoms was compiled.
The two week washout period between stages was designed to observe any return or worsening of their symptoms. […] Following completion of all dosing regimens of oral D-ribose and with the final wash out period, both males elected to re-start oral dosing of D-ribose at 5 grams/doses three times a day.

[3] = second regimen: oral, five grams at breakfast and lunch

Structure (SMILES): O=C[C@H](O)[C@H](O)[C@H](O)CO [D-Ribose]
- D-Ribose levels in the serum ([1]; 60 mg/kg): approximately 25 mg/dl
- half-life of D-Ribose in the serum ([1]; 60 mg/kg): 11 min
- D-Ribose levels in the serum ([1]; 100 mg/kg): approximately 25 mg/dl
- half-life of D-Ribose in the serum ([1]; 100 mg/kg): 16 min
- serum level ([1]; 222.2 mg/kg): ≤ 86 mg/dL
- serum levels [1]: ≤ 60 mg/dL
- energy and fatigue ([2]; initial regimen: oral, five grams single dose at breakfast): general feeling of more energy and less fatigue
- leg twitching events and the urge to move during the day [2, 3]: reduced for one of the subjects and rarely present in the other
- unpleasant sensations during the night [2, 3]: Both still experienced the unpleasant sensations during the night
